Assay type in all cases: cell-based
Test [1] deals with T1, TYK2 (Homo sapiens, UniProt P29597). Kind of test: TYK2 degradation MSD assay in human PBMC cells. Also on record: endogenous in cells; host or cells: human PBMC. Conditions: 4 to 24 hours incubation, read-out: TYK2 MSD DC50 rating in human PBMC. The procedure, abridged:
(§1)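 DC50 values reflect dose-dependent decrease of TYK2 protein, read by MSD after cells were exposed to compound (top 1 to 10 μM, 1:3, 9 doses) for 4 to 24 hours at 37° C.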

Test [2] concerns the target T1, TYK2. Kind of test: TYK2 degradation MSD assay in EBV-B cells. Further details: endogenous in cells; host or cells: EBV-B cells. Conditions: 4 to 24 hours incubation, read-out: TYK2 MSD DC50 rating in EBV-B. The procedure, abridged: as §1
The target of test [3] is T1, TYK2. Kind of test: TYK2 degradation MSD assay in OCI-LY10 cells. Also on record: endogenous in cells; host or cells: EBV-B cells. Conditions: 4 to 24 hours incubation, read-out: TYK2 MSD DC50 rating in OCI-LY10. The gist of the method: as §1

T1 sequence (P29597 whole entry): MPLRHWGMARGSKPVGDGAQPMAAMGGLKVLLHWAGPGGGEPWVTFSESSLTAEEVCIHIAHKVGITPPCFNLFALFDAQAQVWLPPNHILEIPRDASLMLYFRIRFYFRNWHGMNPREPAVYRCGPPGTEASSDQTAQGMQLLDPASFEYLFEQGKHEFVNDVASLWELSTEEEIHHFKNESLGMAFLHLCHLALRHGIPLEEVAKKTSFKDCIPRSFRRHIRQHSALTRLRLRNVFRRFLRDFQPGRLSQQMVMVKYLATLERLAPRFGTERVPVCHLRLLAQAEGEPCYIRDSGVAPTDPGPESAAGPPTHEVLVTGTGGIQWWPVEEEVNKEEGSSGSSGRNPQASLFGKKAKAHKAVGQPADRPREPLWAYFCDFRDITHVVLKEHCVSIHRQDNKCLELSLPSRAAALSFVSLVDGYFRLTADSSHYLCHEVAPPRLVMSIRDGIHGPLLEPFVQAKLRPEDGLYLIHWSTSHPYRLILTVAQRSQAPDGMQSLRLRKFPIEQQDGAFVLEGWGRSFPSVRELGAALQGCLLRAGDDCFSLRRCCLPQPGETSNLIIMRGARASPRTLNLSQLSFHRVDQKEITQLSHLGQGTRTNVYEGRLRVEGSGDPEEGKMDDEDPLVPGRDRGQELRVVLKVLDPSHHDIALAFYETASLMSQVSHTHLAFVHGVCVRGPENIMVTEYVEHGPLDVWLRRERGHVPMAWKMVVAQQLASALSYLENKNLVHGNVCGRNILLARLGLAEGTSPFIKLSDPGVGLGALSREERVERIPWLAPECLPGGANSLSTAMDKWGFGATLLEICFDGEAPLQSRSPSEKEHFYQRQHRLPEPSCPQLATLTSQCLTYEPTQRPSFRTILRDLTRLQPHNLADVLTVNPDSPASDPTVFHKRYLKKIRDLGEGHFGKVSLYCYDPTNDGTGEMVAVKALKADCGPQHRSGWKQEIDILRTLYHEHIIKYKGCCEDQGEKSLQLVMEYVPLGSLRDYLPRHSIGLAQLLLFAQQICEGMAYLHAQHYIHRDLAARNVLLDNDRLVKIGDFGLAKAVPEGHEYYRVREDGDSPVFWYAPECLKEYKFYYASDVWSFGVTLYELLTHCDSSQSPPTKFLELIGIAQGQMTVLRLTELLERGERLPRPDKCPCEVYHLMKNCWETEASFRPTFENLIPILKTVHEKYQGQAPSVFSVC

As for `CNc1cc(-c2cnn(C3CCC(CN4CCC(CN(C)c5ccc6c(c5)n(C)c(=O)n6C5CCC(=O)NC5=O)CC4)CC3)c2)nn2c(C(=O)NC3C[C@@H]3F)cnc12` (stereo partly drawn) [Example K364], the DC50 on TYK2 [1], on TYK2 [2] and at TYK2 [3] was more than 100 nM throughout.
`Cn1c(=O)n(C2CCC(=O)NC2=O)c2ccc(-c3ccc(CCCNc4cc(Nc5cccn(-c6ccccn6)c5=O)nn5c(C(=O)N[C@@H]6C[C@@H]6F)cnc45)nc3)cc21` (stereo partly drawn) [Example K365]: the DC50 at TYK2 [1], on TYK2 [2] and at TYK2 [3] was more than 100 nM in each case.
As for `Cn1c(=O)n(C2CCC(=O)NC2=O)c2ccc(C3CCN(CCCNc4cc(Nc5cccn(-c6ccccn6)c5=O)nn5c(C(=O)N[C@@H]6C[C@@H]6F)cnc45)CC3)cc21` (stereo partly drawn) [Example K366], the DC50 at TYK2 [1], at TYK2 [2] and on TYK2 [3] was more than 100 nM throughout.
For the compound `Cn1c(=O)n(C2CCC(=O)NC2=O)c2ccc(CN3CCC(Nc4cc(Nc5cccn(-c6ccccn6)c5=O)nn5c(C(=O)N[C@@H]6C[C@@H]6F)cnc45)CC3)cc21` (stereo partly drawn) [Example K367], the DC50 on TYK2 [1], at TYK2 [2] and on TYK2 [3] was more than 100 nM in each case.
As for `CNc1cc(Nc2cccn(-c3ccc(C(=O)N(C)CCCOCCCc4cccc5c4n(C)c(=O)n5C4CCC(=O)NC4=O)cn3)c2=O)nn2c(C(=O)N[C@@H]3C[C@@H]3F)cnc12` (stereo partly drawn) [Example K369], the figures for the DC50 on TYK2 [1], at TYK2 [2] and at TYK2 [3] were 1 to 10 nM, more than 100 nM and more than 100 nM, respectively.
On to `CNc1cc(Nc2cccn(-c3ccc(C(=O)NCc4ccc(N5CCC(N6CCC(c7ccc8c(c7)n(C)c(=O)n8C7CCC(=O)NC7=O)C6)CC5)cc4)cn3)c2=O)nn2c(C(=O)N[C@@H]3C[C@@H]3F)cnc12` (stereo partly drawn) [Example K370], for which the DC50 on TYK2 [1] is more than 100 nM; on TYK2 [2], less than 1 nM; on TYK2 [3] it was less than 1 nM.
`CNc1cc(Nc2cccn(-c3ccc(C(=O)N4CCCC5(C4)CN(c4ncc(C#Cc6ccc7c(c6)n(C)c(=O)n7C6CCC(=N)NC6=O)cn4)C5)cn3)c2=O)nn2c(C(=O)N[C@@H]3C[C@@H]3F)cnc12` (stereo partly drawn) [Example K371]: the DC50 at TYK2 [1] was more than 100 nM; on TYK2 [2], 1 to 10 nM; on TYK2 [3] it was more than 100 nM.
For `CNc1cc(Nc2cccn(-c3ccc(C(=O)N4CC5(C4)CN(c4ccc(-c6ccc7c(c6)n(C)c(=O)n7C6CCC(=O)NC6=O)cc4)C5)cn3)c2=O)nn2c(C(=O)N[C@@H]3C[C@@H]3F)cnc12` (stereo partly drawn) [Example K372], the DC50 at TYK2 [1] was more than 100 nM; on TYK2 [2], less than 1 nM; on TYK2 [3], more than 100 nM.
As for `CNc1cc(Nc2cccn(-c3ccc(C(=O)N4CCN(CC5CC(c6ccc(-c7ccc8c(c7)n(C)c(=O)n8C7CCC(=O)NC7=O)cc6)C5)CC4)cn3)c2=O)nn2c(C(=O)N[C@@H]3C[C@@H]3F)cnc12` (stereo partly drawn) [Example K373], the results for the DC50 at TYK2 [1], at TYK2 [2] and at TYK2 [3] were more than 100 nM, less than 1 nM and more than 100 nM, respectively.
Turning to `CNc1cc(Nc2cccn(-c3ccc(C(=O)N4CCN(CC5CCN(c6ccc(-c7ccc8c(c7)n(C)c(=O)n8C7CCC(=O)NC7=O)cc6)CC5)CC4)cn3)c2=O)nn2c(C(=O)N[C@@H]3C[C@@H]3F)cnc12` (stereo partly drawn) [Example K374], the DC50 is more than 100 nM on TYK2 [1], less than 1 nM on TYK2 [2] and more than 100 nM at TYK2 [3].
For the compound `CNc1cc(Nc2cccn(-c3ccc(C(=O)N4CCC(CN5CCC56CN(c5ncc(C#Cc7ccc8c(c7)n(C)c(=O)n8C7CCC(=O)NC7=O)cn5)C6)CC4)cn3)c2=O)nn2c(C(=O)N[C@@H]3C[C@@H]3F)cnc12` (stereo partly drawn) [Example K375], the DC50 was more than 100 nM at TYK2 [1], 1 to 10 nM on TYK2 [2] and more than 100 nM at TYK2 [3].
Consider `CNc1cc(Nc2cccn(-c3ccc(C(=O)N4CCC45CN(c4ncc(C#Cc6ccc7c(c6)n(C)c(=O)n7C6CCC(=O)NC6=O)cn4)C5)cn3)c2=O)nn2c(C(=O)N[C@@H]3C[C@@H]3F)cnc12` (stereo partly drawn) [Example K376], for which the DC50 was more than 100 nM at TYK2 [1], 10 to 100 nM on TYK2 [2] and more than 100 nM at TYK2 [3].
`CNc1cc(Nc2cccn(-c3ccc(C(=O)N4CCN([C@H]5CC[C@@H](c6ccc(-c7ccc8c(c7)n(C)c(=O)n8C7CCC(=O)NC7=O)cc6)CC5)CC4)cn3)c2=O)nn2c(C(=O)N[C@@H]3C[C@@H]3F)cnc12` (stereo partly drawn) [Example K377]: the DC50 on TYK2 [1] was more than 100 nM; at TYK2 [2], less than 1 nM; on TYK2 [3] it was more than 100 nM.
`CNc1cc(Nc2cccn(-c3ccc(C(=O)N4CCN(c5ccc(-c6ccc7c(c6)n(C)c(=O)n7C6CCC(=O)NC6=O)cn5)C(=O)C4)cn3)c2=O)nn2c(C(=O)N[C@@H]3C[C@@H]3F)cnc12` (stereo partly drawn) [Example K378]: the figures for the half-maximal degradation concentration (DC50) on TYK2 [1], at TYK2 [2] and at TYK2 [3] were more than 100 nM, less than 1 nM and more than 100 nM, respectively.
On to `CNc1cc(Nc2cccn(-c3ccc(C(=O)N4CCN(CCCOCCc5ccc(-c6ccc7c(c6)n(C)c(=O)n7C6CCC(=O)NC6=O)cc5)CC4)cn3)c2=O)nn2c(C(=O)N[C@@H]3C[C@@H]3F)cnc12` (stereo partly drawn) [Example K379], for which the DC50 at TYK2 [1] is more than 100 nM; at TYK2 [2], less than 1 nM; on TYK2 [3] it was more than 100 nM.
For the compound `CNc1cc(Nc2cccn(-c3ccc(C(=O)N4CCN([C@H]5CC[C@H](c6ccc(-c7ccc8c(c7)n(C)c(=O)n8C7CCC(=O)NC7=O)cc6)CC5)CC4)cn3)c2=O)nn2c(C(=O)N[C@@H]3C[C@@H]3F)cnc12` (stereo partly drawn) [Example K380], the DC50 at TYK2 [1], on TYK2 [2] and on TYK2 [3] was less than 1 nM in each case.
As to `CNc1cc(Nc2cccn(-c3ccc(C(=O)N4CCC(N5CC(N6CCN(c7ccc8c(c7)n(C)c(=O)n8C7CCC(=O)NC7=O)CC6)C5)CC4)cn3)c2=O)nn2c(C(=O)N[C@@H]3C[C@@H]3F)cnc12` (stereo partly drawn) [Example K381], the DC50 at TYK2 [1] was more than 100 nM; on TYK2 [2] it was less than 1 nM; at TYK2 [3], less than 1 nM.
Take `CNc1cc(Nc2cccn(-c3ccc(C(=O)N4CC5(C4)CN(c4ncc(C#Cc6ccc7c(c6)n(C)c(=O)n7C6CCC(=O)NC6=O)cn4)C5)cn3)c2=O)nn2c(C(=O)NC3CC3F)cnc12` (stereo not drawn) [Example K382]: the DC50 was more than 100 nM on TYK2 [1], less than 1 nM at TYK2 [2] and more than 100 nM at TYK2 [3].
As for `CNc1cc(Nc2cccn(-c3ccc(C(=O)N4CC5(CCN(c6ccc(-c7ccc8c(c7)n(C)c(=O)n8C7CCC(=O)NC7=O)cn6)CC5)C4)cn3)c2=O)nn2c(C(=O)N[C@@H]3C[C@@H]3F)cnc12` (stereo partly drawn) [Example K383], the DC50 at TYK2 [1] was less than 1 nM; on TYK2 [2], less than 1 nM; on TYK2 [3], more than 100 nM.
For the compound `CNc1cc(Nc2cccn(-c3ccc(C(=O)NC4CCC(C(=O)N5CCC6(CN(CC#Cc7ccc8c(c7)n(C)c(=O)n8C7CCC(=O)NC7=O)C6)C5)CC4)cn3)c2=O)nn2c(C(=O)N[C@@H]3C[C@@H]3F)cnc12` (stereo partly drawn) [Example K384], the DC50 at TYK2 [1], on TYK2 [2] and at TYK2 [3] was more than 100 nM in each case.
`CNc1cc(Nc2cccn(-c3ccc(C(=O)N4CCC(c5ncc(-c6ccc7c(c6)n(C)c(=O)n7C6CCC(=O)NC6=O)cn5)CC4)cn3)c2=O)nn2c(C(=O)N[C@@H]3C[C@@H]3F)cnc12` (stereo partly drawn) [Example K385]: the DC50 at TYK2 [1] was less than 1 nM; on TYK2 [2] it was less than 1 nM; at TYK2 [3] it was more than 100 nM.
With `CNc1cc(Nc2cccn(-c3ccc(C(=O)N4CCN(CCc5ccc6c(c5)n(C)c(=O)n6C5CCC(=O)NC5=O)CC4)cn3)c2=O)nn2c(C(=O)N[C@@H]3C[C@@H]3F)cnc12` (stereo partly drawn) [Example K386], the DC50 at TYK2 [1] is less than 1 nM; on TYK2 [2] it was more than 100 nM; on TYK2 [3], more than 100 nM.

One may read the DC50 as the concentration at which degradation of the target reaches its halfway point.

The values are drawn from patent publication US20250051338A1, “TYK2 DEGRADERS AND USES THEREOF” (Kymera Therapeutics, Inc., priority 2021, published 2025).
